# Results taken from patent publication US4431639A, “Adjuvant for stimulating production of lymphocytes” (priority 1979, dated 1984).
# “Also recorded” adds a separate entry of the source.
# System: Sarcoma 180
# Assay: Survival / recovery of mice after intraperitoneal inoculation of Sarcoma 180
# Format: in vivo, mice (I.C.R.)
# Conditions: for effectiveness against Sarcoma 180 compared with the extract of the natural herb: comparison in words; for effectiveness for treating mice inoculated with Sarcoma 180: in words
# Procedure: White male mice (I.C.R.) weighing 16 to 18 g.
# 1 gm of the dried powder was dissolved in 160 ml of tap water and was put into the animal cages in place of the usual drinking water, so that the test mice ingested it ad libitum. […]
# A large volume of ether extract from a powder of Rhizoma Atractylis alba was produced. Some definite weights of the ether extract were dissolved in small volumes of ethanol, and then diluted with water to obtain emulsions of ether extract/water of 1 mg/100 ml, 2 mg/100 ml, 3 mg/100 ml, 4 mg/100 ml and 5 mg/100 ml.
# The emulsions were administered to I.C.R. male mice for one month as described in Example 4, and then the mice were inoculated with 200,000 cells of Sarcoma 180 intraperitoneally. The survival time of the inoculated mice was regressed to the concentration of ether extract administered. […]
# Mandelic acid, mandelic acid isoamyl ester (Atractyl), mandelic acid methyl ester, mandelic acid ethyl ester and atrolactic acid were tested by the same procedure as described in Example 6.
structure (smiles),measurement,value
CCOC(=O)C(O)c1ccccc1 (stereo not shown) [mandelic acid ethyl ester],effectiveness against Sarcoma 180 compared with the extract of the natural herb,less effective than the extract from the natural herb
same,effectiveness for treating mice inoculated with Sarcoma 180,somewhat effective
"CC(C)CCOC(=O)C(O)c1ccccc1 (stereo not shown) [Atractyl, mandelic acid isoamyl ester]",effectiveness against Sarcoma 180 compared with the extract of the natural herb,less effective than the extract from the natural herb; also recorded: significantly less than that of the extract of the natural herb
same,effectiveness for treating mice inoculated with Sarcoma 180,somewhat effective
CC(O)(C(=O)O)c1ccccc1 (stereo not shown) [atrolactic acid],effectiveness against Sarcoma 180 compared with the extract of the natural herb,less effective than the extract from the natural herb
same,effectiveness for treating mice inoculated with Sarcoma 180,somewhat effective
COC(=O)C(O)c1ccccc1 (stereo not shown) [mandelic acid methyl ester],effectiveness against Sarcoma 180 compared with the extract of the natural herb,less effective than the extract from the natural herb
same,effectiveness for treating mice inoculated with Sarcoma 180,somewhat effective
O=C(O)C(O)c1ccccc1 (stereo not shown) [Mandelic acid],effectiveness against Sarcoma 180 compared with the extract of the natural herb,less effective than the extract from the natural herb
same,effectiveness for treating mice inoculated with Sarcoma 180,somewhat effective
